Source: patent US20100216747A1, “PREVENTIVE AGENT OR THERAPEUTIC AGENT FOR DISEASE CAUSED BY ABNORMAL BONE METABOLISM” (TEIJIN PHARMA LIMITED, priority 2007, published 2010)
Read-outs that look alike come from different tables or passages of the source.

What was measured:
[1] = test system: osteoclast-like cells formed from mouse bone marrow-derived cells; assay: Formation of osteoclast-like cells (TRAP-positive multinuclear cells) from mouse bone marrow-derived cells cultured with 1α,25(OH)2D3; format: cell-based; settings: alone or simultaneously, 7 days; for number of osteoclast-like cells formed, taking Comparative Example 1-1 as 100%: Example 1 experiment (FIG. 1): Compound A 10^−7 M; for number of osteoclast-like cells formed, taking Comparative Example 1-1 as 100% / number of osteoclast-like cells formed, taking Comparative Example 2-1 as 100%: 3 wells; for number of osteoclast-like cells formed, taking Comparative Example 2-1 as 100%: Example 2 experiment (FIG. 2): Compound A 10^−6 M; for number of osteoclast-like cells formed, taking Comparative Example 3-1 as 100%: Example 3 experiment (FIG. 3): Compound A 10^−7 M, 4 to 5 wells
Excerpt: Multinuclear osteoclast-like cells were formed from mouse bone marrow-derived cells by collecting bone marrows of the femur and the tibia from a mouse, removing erythrocytes according to the ordinary method, plating the residual components in a 96-well plate at the density of 4×10^5cells/well, culturing the cells overnight, then adding a medium containing 1α,25-dihydroxy vitamin D3 (referred to as 1═,25(OH)2D3 hereinbelow) in order to be at 10^−9M, and culturing the cells in the presence of 1α,25(OH)2D3 for 7 days. An αMEM medium containing 10% fetal calf serum (referred to as 10% FCS-αMEM hereinbelow) was used as a medium. When 1α,25(OH)2D3 was added to the mouse bone marrow-derived cells, each of a solvent alone (Comparative Example 1-1), N-hydroxy-4-{5-[4-(5-isopropyl-2-methyl-1,3-thiazol-4-yl)phenoxy]pentoxy}-benzamidine (described as Compound A in Figure) alone (Comparative Example 1-2), risedronic acid alone (Comparative Example 1-3), and N-hydroxy-4-{5-[4-(5-isopropyl-2-methyl-1,3-thiazol-4-yl)phenoxy]pentoxy}-benzamidine (described as Compound A in Figure) and risedronic acid simultaneously (Example 1) were added to the mouse bone marrow-derived cell culture system, and the effects on formation of osteoclast-like cells were evaluated. The following groups were set for the experiment.
For addition of N-hydroxy-4-{5-[4-(5-isopropyl-2-methyl-1,3-thiazol-4-yl)phenoxy]pentoxy}-benzamidine (Compound A), in both the Comparative Examples and Example, N-hydroxy-4-{5-[4-(5-isopropyl-2-methyl-1,3-thiazol-4-yl)phenoxy]pentoxy}-benzamidine (Compound A) was dissolved in dimethylsulfoxide (DMSO) at a concentration of 10^−4 M, and the resultant solution was added to the medium to make 10^−7 M at a 1000-fold dilution. For addition of risedronic acid, in both the Comparative Examples and Example, sodium risedronate hydrate was dissolved in phosphate buffered saline (PBS) at a concentration of […], and the resultant solution was added to the medium to make 3×10^−7 M at a 1000-fold dilution. On the third day after addition of the test compound(s) of the respective conditions, the medium was replaced with fresh 10% FCS-αMEM containing the test compound(s) of the respective conditions in both the Comparative Examples and Example.
In both the Comparative Examples and Example, on the 7th day after the start of culture, the medium was removed, the cells were fixed with phosphate buffered formalin and stained by tartrate-resistant acid phosphatase (abbreviated as TRAP hereinbelow), an osteoclast marker, using Sigma Acid Phosphatase, Leukocyte (TRAP) kit (Sigma, No. 386A), and the number of TRAP-positive multinuclear cells having 6 or more cell nuclei was counted as osteoclast-like cells under an optical microscope.
The experiment was conducted in a similar manner to that described in Example 1, except that the concentration of N-hydroxy-4-{5-[4-(5-isopropyl-2-methyl-1,3-thiazol-4-yl)phenoxy]pentoxy}-benzamidine in the medium was set at 10^−6M, and the following groups were set.
The experiment was conducted in a similar manner to that described in Example 1, except that clodronic acid at a concentration of 10^−5 M was allowed to act on the cells in place of risedronic acid at a concentration of 3×10^−7 M in the Comparative Examples and Example, and the following groups were set.

[2] = test system: osteoclast-like cells formed from mouse bone marrow-derived cells; assay: Bone resorption activity of osteoclast-like cells on ivory section (type I collagen cross-linked C-telopeptide in medium, ELISA); format: cell-based; settings: Example 4 experiment: Compound A 10^−7 M, risedronic acid 10^−8 M, alone or simultaneously, 9 days on ivory section, vs Comparative Example 4-1, 3 to 4 wells
Excerpt: Multinuclear osteoclast-like cells were formed from mouse bone marrow-derived cells by collecting bone marrows of the femur and the tibia from a mouse, removing erythrocytes according to the ordinary method, plating the residual components in a 96-well plate containing an ivory section at the density of 4×10^5 cells/well, culturing the cells overnight, then adding a medium containing 1α,25-dihydroxy vitamin D3 (referred to as 1α,25(OH)2D3 hereinbelow) in order to be at 10^−9 M, and culturing the cells in the presence of 1α,25(OH)2D3 for 9 days. An αMEM medium containing 10% fetal calf serum (referred to as 10% FCS-αMEM hereinbelow) was used as a medium. When 1α,25(OH)2D3 was added to the mouse bone marrow-derived cells, each of a solvent alone (Comparative Example 4-1), N-hydroxy-4-{5-[4-(5-isopropyl-2-methyl-1,3-thiazol-4-yl)phenoxy]pentoxy}-benzamidine (described as Compound A in Table 4) alone (Comparative Example 4-2), risedronic acid alone (Comparative Example 4-3), and N-hydroxy-4-{5-[4-(5-isopropyl-2-methyl-1,3-thiazol-4-yl)phenoxy]pentoxy}-benzamidine (described as Compound A in Table 4) and risedronic acid (Example 4) were simultaneously added to the mouse bone marrow-derived cell culture system, and the effects on formation of osteoclast-like cells were evaluated. The following groups were set for the experiment.
For addition of N-hydroxy-4-{5-[4-(5-isopropyl-2-methyl-1,3-thiazol-4-yl)phenoxy]pentoxy}-benzamidine (Compound A), in both the Comparative Examples and Example, N-hydroxy-4-{5-[4-(5-isopropyl-2-methyl-1,3-thiazol-4-yl)phenoxy]pentoxy}-benzamidine (Compound A) was dissolved in dimethylsulfoxide (DMSO) at a concentration of 10^−4 M, and the resultant solution was added to the medium to make 10^−7 M at a 1000-fold dilution. […]
Both in Comparative Examples and Example, the culture medium was collected 9 days after the start of culture, and the quantity of type I collagen cross-linked C-telopeptide in the medium was measured. […]

[3] = Mus musculus, Osteoclast-like, 168 h, Example 1 experiment: Compound A 10^−7 M, risedronic acid 3×10^−7 M, vs Comparative Example 1-1, read-out: Osteoclast-like cell formation inhibition rate (%)
[4] = Mus musculus, Osteoclast-like, 168 h, Example 2 experiment: Compound A 10^−6 M, risedronic acid 3×10^−7 M, vs Comparative Example 2-1, read-out: Osteoclast-like cell formation inhibition rate (%)
[5] = Mus musculus, Osteoclast-like, 168 h, Example 3 experiment: Compound A 10^−7 M, clodronic acid 10^−5 M, vs Comparative Example 3-1, read-out: Osteoclast-like cell formation inhibition rate (%)
[6] = Mus musculus, Osteoclast-like, 216 h, read-out: Bone resorption inhibitory rate (%)

| Structure (SMILES) | number of osteoclast-like cells formed, taking Comparative Example 1-1 as 100% ([1]; risedronic acid 3×10^−7 M) | number of osteoclast-like cells formed, taking Comparative Example 2-1 as 100% ([1]; risedronic acid 3×10^−7 M) | number of osteoclast-like cells formed, taking Comparative Example 3-1 as 100% ([1]; clodronic acid 10^−5 M) | inhibition at 0.1 µM [1, 3] | inhibition at 1 µM [1, 4] | inhibition at 0.1 µM [1, 5] | inhibition at 0.1 µM [2, 6] | inhibition at 10 µM [1, 5] | inhibition at 0.3 µM [1, 3] | inhibition at 0.3 µM [1, 4] | Bone resorption inhibitory rate (%) ([2]; listed as Comparative Example 4-3) | inhibition at 0.01 µM [2, 6] |
| --- | --- | --- | --- | --- | --- | --- | --- | --- | --- | --- | --- | --- |
| Cc1nc(-c2ccc(OCCCCCOc3ccc(/C(N)=N/O)cc3)cc2)c(C(C)C)s1 [Compound A, N-hydroxy-4-{5-[4-(5-isopropyl-2-methyl-1,3-thiazol-4-yl)phenoxy]pentoxy}-benzamidine] | 81.3% | 50% | 95.2% | 18.7% | 50% | 4.8% | 13.9% | – | – | – | – | – |
| O=P(O)(O)C(Cl)(Cl)P(=O)(O)O [clodronic acid] | – | – | 93.9% | – | – | – | – | 6.1% | – | – | – | – |
| O=P(O)(O)C(O)(Cc1cccnc1)P(=O)(O)O [risedronic acid] | 88.1% | 88.1% | – | – | – | – | – | – | 11.9% | 11.9% | 18.3% | 18.3% |
